Data taken from patent publication US9314510B2, “Human laminin α2 chain LG3 domain and active peptides promoting cell adhesion, spreading, migration, and neurite outgrowth” (SNU R&DB Foundation, priority 2011, dated 2016).
pIC50: −log10 of the molar value.

Columns and labels:
PC12 cells [1] = experiment: Effect of PKC inhibitor pretreatment on cell adhesion, spreading, migration and stress fiber formation; assay type: cell-based, rat; conditions: Gö6976 2.5 or 5.0 nM, rottlerin 1 or 5 μM, 15 min
Description: PC12 cells were pretreated with Gö6976 or rottlerin for 15 min at 37° C. and seeded on laminin-, rLG3-, or Ln2-LG3-P2-coated plates and then, cell adhesion, spreading, migration, and stress fiber formation were observed. To observe cell adhesion, the pretreated PC12 cells were incubated for 1 h and to observe cell spreading and stress fiber formation, the pretreated PC12 cells were incubated on the coated plates for 3 h. In addition, to observe cell migration, the pretreated PC12 cells were incubated on the coated plates for 24 h.

FAK Tyr-397 = experiment: Effect of PKC inhibitors on FAK phosphorylation at Tyr-397; assay type: cell-based, rat; conditions: PC12 cells pretreated with 5 nM Gö6976 or 5 μM rottlerin 15 min, laminin, rLG3, Ln2-LG3-P2 plates
Description: PC12 cells were pretreated with 5 nM Gö6976 or 5 μM rottlerin for 15 min at 37° C. and seeded on laminin-, rLG3-, or Ln2-LG3-P2-coated plates for 15 min in serum-free medium.

PKCα/β = PKCα/β inhibitor; cited from earlier work
PC12 cells [2] = experiment: Cell viability with PKC inhibitors; conditions: at the concentrations used and duration of treatment
PC12 cells [3] = experiment: Effect of PLC inhibitor on cell adhesion and spreading; assay type: cell-based, rat; conditions: 0.5 or 1.0 μM
PC12 cells [4] = conditions: cited from earlier work
PC12 cells [5] = experiment: Effect of Rho-kinase inhibitor on stress fibers; assay type: cell-based, rat; conditions: cells seeded 1 h, then 10 μM for 2 h
Description: PC12 cells were seeded on glass slide chambers coated with laminin, rLG3, or Ln2-LG3-P2 for 1 h. The cells were treated with […] Y27632, a selective inhibitor of Rho-associated protein kinase, for 2 h in serum-free medium and immunostained with rhodamine-phalloidin.

PC12 cells [6] = experiment: Effect of rottlerin on stress fibers of already spread cells; assay type: cell-based, rat; conditions: 2.5 h incubation, then 5 μM for 30 min
Description: PC12 cells were seeded on glass slide chambers coated with laminin, rLG3, or Ln2-LG3-P2. After 2.5 h incubation, the cells were treated with 5 μM rottlerin for 30 min and immunostained with rhodamine-phalloidin.

PKCδ = PKCδ (Homo sapiens, UniProt Q05655); conditions: PKCδ inhibitor; cited from earlier work
PKCδ, sequence (Q05655 whole entry): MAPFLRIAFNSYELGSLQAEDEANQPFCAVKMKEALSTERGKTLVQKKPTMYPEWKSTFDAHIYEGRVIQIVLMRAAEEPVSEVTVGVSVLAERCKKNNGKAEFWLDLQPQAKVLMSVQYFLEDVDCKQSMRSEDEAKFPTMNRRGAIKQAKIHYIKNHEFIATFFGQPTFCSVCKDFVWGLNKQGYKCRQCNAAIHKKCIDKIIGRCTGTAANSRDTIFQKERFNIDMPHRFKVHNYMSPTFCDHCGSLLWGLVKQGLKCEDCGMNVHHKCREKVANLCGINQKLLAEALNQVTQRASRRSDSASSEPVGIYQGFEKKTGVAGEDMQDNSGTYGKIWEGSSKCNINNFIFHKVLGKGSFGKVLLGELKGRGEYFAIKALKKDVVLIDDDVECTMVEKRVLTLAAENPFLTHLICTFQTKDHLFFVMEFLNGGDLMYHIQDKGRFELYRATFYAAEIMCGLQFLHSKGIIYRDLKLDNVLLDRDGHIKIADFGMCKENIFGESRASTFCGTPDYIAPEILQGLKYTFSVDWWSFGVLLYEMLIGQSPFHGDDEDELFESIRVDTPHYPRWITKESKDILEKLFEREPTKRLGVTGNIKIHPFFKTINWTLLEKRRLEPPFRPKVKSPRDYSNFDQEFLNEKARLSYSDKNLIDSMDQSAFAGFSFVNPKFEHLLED

fibroblasts = conditions: 1-3 μM; cited from earlier work

For `Cn1c2ccccc2c2c3c(c4c5ccccc5n(CCC#N)c4c21)CNC3=O` [Gö6976], the “spreading of PC12 cells to laminin, rLG3, and Ln2-LG3-P2 after inhibitor pretreatment” value (PC12 cells [1]; 3 h) is given as “not with Gö6976 significantly impaired”, the “level of FAK phosphorylation at Tyr-397” value (FAK Tyr-397) is given as “did not affect” and the pIC50 (PKCα/β) is given as 8.64. The cell viability (PC12 cells [2]) was “did not affect cell viability”.
With `COc1ccc2c(c1)CC[C@@H]1[C@@H]2CC[C@]2(C)[C@@H](NCCCCCCN3C(=O)C=CC3=O)CC[C@@H]12` [U73122] the “cell adhesion to rLG3 and Ln2-LG3-P2 after inhibitor pretreatment” value (PC12 cells [3]; 15 min, 1 h) was “reduced by U73122 in a dose-dependent manner”, the “cell spreading to rLG3 and Ln2-LG3-P2 after inhibitor pretreatment” value (PC12 cells [3]; 15 min, 3 h) was “reduced” and the “cell adhesion (as printed in legend of FIG. 15B)” value (PC12 cells [3]; rLG3 and Ln2-LG3-P2 plates, 3 h) was “reduced by U73122 in a dose-dependent manner”. For the same molecule, the “α1β1 integrin-mediated PC12 cell adhesion” value (PC12 cells [4]) was “reduced”.
For `C[C@@H](N)[C@H]1CC[C@H](C(=O)Nc2ccncc2)CC1` [Y27632], the “stress fibers of PC12 cells to laminin, rLG3, and Ln2-LG3-P2” value (PC12 cells [5]) was “completely disassembled stress fibers”.
With `CC(=O)c1c(O)c(C)c(O)c(Cc2c(O)c3c(c(C(=O)/C=C/c4ccccc4)c2O)OC(C)(C)C=C3)c1O` [rottlerin] the “adhesion of PC12 cells to laminin, rLG3, and Ln2-LG3-P2 after inhibitor pretreatment” value (PC12 cells [1]; 1 h) was “significantly impaired”, the “spreading of PC12 cells to laminin, rLG3, and Ln2-LG3-P2 after inhibitor pretreatment” value (PC12 cells [1]; 3 h) was “significantly impaired” and the “stress fiber formation of PC12 cells to laminin, rLG3, and Ln2-LG3-P2 after inhibitor pretreatment” value (PC12 cells [1]; 3 h) was “significantly impaired”. The “migration of PC12 cells to laminin, rLG3, and Ln2-LG3-P2 after inhibitor pretreatment” value (PC12 cells [1]; 24 h) was “significantly impaired”, the “stress fiber formation of PC12 cells already spread on laminin, rLG3, and Ln2-LG3-P2” value (PC12 cells [6]) was “did not interfere with stress fiber formation” and the “level of FAK phosphorylation at Tyr-397” value (FAK Tyr-397) was “reduced”. For the same molecule, the pIC50 (PKCδ) was 5.22 to 5.52, the “stress fiber formation of fibroblasts pre-spread on fibronectin” value (fibroblasts) was “does not impair stress fiber formation” and the cell viability (PC12 cells [2]) was “did not affect cell viability”.
